pEC50: −log10 of the molar value.
How the values were obtained:
[1] = 50% lethal concentration in uninfected MT4 cells (MTT); type: cell-based; conditions: human, read-out: LC50
Excerpt: (§1) The anti-HIV activity of the compound of the invention can be determined in MT4 cells according to the following procedure. MT4 cells were infected with cell-free supernatant of HIVIIIB (previously frozen with known 50% tissue culture infectious dose (TCID50) at 0.003 multiplicity of infection (MOI) for one hour. After one hour infection, cells were washed twice to remove residual viruses, resuspended in culture media and seeded into 96-well tissue culture plates at 1x10^4 cells per well with various half-log dilutions of compounds. Uninfected cells are included as toxicity and cell controls. RPMI 1640 media (Gibco ) with 10% fetal bovine serum were used as culture media. Various concentrations of human serum (Sigma) 50%, 25% and 12.5% were added to culture media resulting in final concentration of 60%, 35% and 22.5% total serum. All assay plates were incubated in 37 deg. cent. incubator for 5 days. MTT (sigma, 5 mg/ml stock in PBS) was added to all wells at 25 ul per well, incubate for 4 hours. 20%SDS with 0.02 N HCl in water was added at 50 ul per well to lyse cellls. Plates incubated overnight for complete lyses were read on a microtitre plate reader at 570/650 nm wavelengths to determine cell optical density (O.D.). Raw data were analysed for percent inhibition by the following formula: (O.D. test well - O.D. virus control)/(O.D. cell control -O.D. virus control)x100 [formula] The 50% effective concentration (EC50) was calculated by the median effect equation (Chou, 1975,Proc. Int. Cong. Pharmacol. 6th p. 619) to determine the efficacy of compound. The 50% lethal concentration (LC50) was calculated using uninfected MT4 cells.
(§2) Under these conditions, the following data were obtained (n = 4 duplicate determinations: Table 2

HIVIIIB = assay: Antiviral activity (anti-HIV activity) in MT4 cells, MTT readout; type: cell-based; conditions: Human immunodeficiency virus 1, MT4, 120 h, read-out: IC50 (µM, 0% plasma)
Excerpt: as §1, §2

HIV protease = molecular target: T1, HIV protease (Human immunodeficiency virus type 1 group M subtype B, UniProt P04585); assay: Fluorogenic Assay for Screening Inhibitors of HIV Protease; type: biochemical; conditions: Inhibitor Concentration 0.5 nanomolar; read-out: Percent Inhibition
T1 construct: HIV protease consists of two identical subunits, each of which has 99 amino acid residues
Method: The inhibitory potency of the compound of the invention can be determined by the following method.
The compound of the invention is dissolved in DMSO and a small aliquot further diluted with DMSO to 100 times the final concentration desired for testing. The reaction is carried out in a 6 X 50 mm tube in a total volume of 300 microliters. The final concentrations of the components in the reaction buffer are: 125 mM sodium acetate, 1 M sodium chloride, 5 mM dithiothreitol, 0.5 mg/ml bovine serum albumin, 1.3 µM fluorogenic substrate, 2% (v/v) dimethylsulfoxide, pH 4.5. After addition of inhibitor, the reaction mixture is placed in the fluorometer cell holder and incubated at 30°C for several minutes. The reaction is initiated by the addition of a small aliquot of cold HIV protease. The fluorescence intensity (excitation 340 nm, emmision 490 nM) is recorded as a function of time. The reaction rate is determined for the first six to eight minutes. The observed rate is directly proportional to the moles of substrate cleaved per unit time. The percent inhibition is 100 X (1 - (rate in presence of inhibitor)/(rate in absence of inhibitor)).
Fluorogenic substrate: Dabcyl-Gaba-Ser-Gln-Asn-Tyr-Pro-lle-Val-Gln-EDANS wherein DABCYL = 4-(4-dimethylamino-phenyl)azobenzoic acid, Gaba = γ-aminobutyric acid, and EDANS = 5-((2-aminoethyl)amino)-naphthalene-1-sulfonic acid.

[2] = test system: HIV Selected In Vitro by the Compound of Example 2B; assay: microbe, parasite or virus in culture; type: cell-based
[3] = Human immunodeficiency virus 1, NL43, Virus NL4-3
[4] = Human immunodeficiency virus 1, Virus P7
[5] = Human immunodeficiency virus 1, Virus P11
[6] = Human immunodeficiency virus 1, Virus P14
[7] = Human immunodeficiency virus 1, Virus P17

Compound | CC50 at 120 h [1] [µM] | IC50 (HIVIIIB) [µM] | inhibition at 0.0005 µM (HIV protease) [%] | pEC50 [2, 3] | pEC50 [2, 4] | pEC50 [2, 5] | pEC50 [2, 6] | pEC50 [2, 7] | resistance (fold) ([2]; P17 virus) | fold change in EC50 ([2]; all of the passaged virus (P7, P11, P14, P17)) [fold]
Cc1cccc(C)c1OCC(=O)N[C@@H](Cc1ccccc1)[C@@H](O)C[C@H](Cc1ccccc1)NC(=O)[C@H](C(C)C)N1C(=O)CCC1=O [Example 18C, (2S,3S,5S)-2-(2,6-Dimethylphenoxyacetyl) amino-3-hydroxy-5-(2S-(1-pyrrolidin-2,5-dionyl)-3-methyl-butanoyl) amino-1,6-diphenylhexane] | 19.1 | 0.329 | 57.8 | – | – | – | – | – | – | –
Cc1cccc(C)c1/C=C/C(=O)N[C@@H](Cc1ccccc1)[C@@H](O)C[C@H](Cc1ccccc1)NC(=O)[C@H](C(C)C)N1CCCNC1=O [Example 19E] | 17.9 | 0.395 | 68.5 | – | – | – | – | – | – | –
Cc1cccc(C)c1OCC(=O)N[C@@H](Cc1ccccc1)[C@@H](O)C[C@H](Cc1ccccc1)NC(=O)[C@H](C(C)C)N1CCC(=O)NC1=O [Example 25E, (2S,3S,5S)-2-(2,6-Dimethylphenoxyacetyl) amino-3-hydroxy-5-[2S-(1-tetrahydro-pyrimid-2,4-dionyl)-3-methylbutanoyl]amino-1,6-diphenylhexane] | 22.9 | 0.012 | 100 | – | – | – | – | – | – | –
Cc1cccc(C)c1OCC(=O)N[C@@H](Cc1ccccc1)[C@@H](O)C[C@H](Cc1ccccc1)NC(=O)[C@H](C(C)C)N1CCNNC1=O [Example 26H, (2S,3S,5S)-2-(2,6-Dimethylphenoxyacetyl) amino-3-hydroxy-5[2S-(4-aza-1-tetrahydro-pyrimid-2-onyl)-3-methyl-butanoyl]amino-1,6-diphenylhexane] | 33 | 0.015 | 94.6 | – | – | – | – | – | – | –
Cc1cccc(C)c1OCC(=O)N[C@@H](Cc1ccccc1)[C@@H](O)C[C@H](NC(=O)[C@H](C(C)C)N1CCCNC1=O)C(C)C [Example 27D, (2S,3S,5S)-2-(2,6-Dimethylphenoxyacetyl) amino-3-hydroxy-5-[2S-(1-tetrahydro-pyrimid-2-onyl)-3-methylbutanoyl]amino-1-phenyl-6-methylheptane] | 56.2 | 0.03 | 92.9 | – | – | – | – | – | – | –
Cc1cccc(C)c1OCC(=O)N[C@@H](Cc1ccccc1)[C@@H](O)C[C@H](NC(=O)[C@H](C(C)C)N1CCC(=O)NC1=O)C(C)C [Example 28, (2S,3S,5S)-2-(2,6-Dimethylphenoxyacetyl) amino-3-hydroxy-5-[2S-(1-tetrahydro-pyrimid-2,4-dionyl)-3-methylbutanoyl]amino-1-phenyl-6-methylheptane] | 72.2 | 0.011 | 86.6 | – | – | – | – | – | – | –
Cc1cccc(C)c1OCC(=O)N[C@@H](Cc1ccccc1)[C@@H](O)C[C@H](Cc1ccccc1)NC(=O)[C@H](C(C)C)N1CCNC(=O)C1=O [Example 29C, (2S,3S,5S)-2-(2,6-Dimethylphenoxyacetyl)amino-3-hydroxy-5-[2S-(1-piperazin-2,3-dionyl)-3-methylbutanoyl]amino-1,6-diphenylhexane] | 56 | 0.427 | 72.6 | – | – | – | – | – | – | –
Cc1cccc(C)c1OCC(=O)N[C@@H](Cc1ccccc1)[C@@H](O)C[C@H](Cc1ccccc1)NC(=O)[C@H](C(C)C)N1CC=NNC1=O [Example 30B, (2S,3S,5S)-2-(2,6-Dimethylphenoxyacetyl) amino-3-hydroxy-5[2S-(4-aza-4,5-dehydro-1-pyrimid-2-onyl)-3-methyl-butanoyl]amino-1,6-diphenylhexane] | 18 | 0.003 | 91 | – | – | – | – | – | – | –
CC(C)(C)NC(=O)[C@@H]1CN(Cc2cccnc2)CCN1C[C@@H](O)C[C@@H](Cc1ccccc1)C(=O)N[C@H]1c2ccccc2C[C@H]1O [Indinavir, N-(2(R)-hydroxy-1 (S)-indanyl)-2(R)-phenylmethyl-4(S)-hydroxy-5-(1-(4-(3-pyridylmethyl)-2(S)-N'-(t-butylcarboxamido)-piperazinyl))-pentaneamide] | – | – | – | 7.17 | 6.95 | 6.82 | 6.37 | 5.87 | 20 | –
CC(C)(C)NC(=O)[C@@H]1C[C@@H]2CCCC[C@@H]2CN1C[C@@H](O)[C@H](Cc1ccccc1)NC(=O)[C@H](CC(N)=O)NC(=O)c1ccc2ccccc2n1 [Saquinavir, N-tert-butyl-decahydro-2-[2(R)-hydroxy-4-phenyl-3(S)-[[N-(2-quinolylcarbonyl)-L-asparaginyl]amino]butyl]-(4aS,8aS)-isoquinoline-3(S)-carboxamide] | – | – | – | 7.70 | 7.48 | 7.24 | 7.32 | 7.09 | – | ≤ 4
